Source: the supplement of paper PMC10307832

How the values were obtained:
Assay in all cases: relative viability (nuclei count vs DMSO), 5 days (fraction); higher = more cells survive
[1] = test system: A-427
Outline: (§1)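 Five library-drug doses in √10 steps were combined with a fixed anchor-drug dose, or a single drug was given alone, by pin tool to lung cancer cell lines in 1536-well plates the day after seeding. Nuclei were stained and counted after 5 days. Relative viability is the nuclei count in treated wells over that in vehicle wells, taken as the median of duplicate plates.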

[2] = test system: COR-L 105
Outline: as §1

[3] = test system: ChaGo-K-1
Outline: as §1

[4] = test system: EKVX
Outline: as §1

[5] = test system: EMC-BAC-2
Outline: as §1

[6] = test system: H3255
Outline: as §1

[7] = test system: HCC-366
Outline: as §1

[8] = test system: LK-2
Outline: as §1

[9] = test system: LOU-NH91
Outline: as §1

[10] = test system: NCI-H1563
Outline: as §1

[11] = test system: NCI-H1666
Outline: as §1

[12] = test system: NCI-H1734
Outline: as §1

[13] = test system: NCI-H1755
Outline: as §1

[14] = test system: NCI-H1975
Outline: as §1

[15] = test system: NCI-H2170
Outline: as §1

[16] = test system: NCI-H23
Outline: as §1

[17] = test system: NCI-H441
Outline: as §1

[18] = test system: NCI-H520
Outline: as §1

[19] = test system: NCI-H596
Outline: as §1

[20] = test system: PC-3 [JPC-3]
Outline: as §1

[21] = test system: SK-MES-1
Outline: as §1

[22] = test system: SW 900
Outline: as §1

In the case of `CCN(CC)CCCCNc1ncc2cc(-c3cc(OC)cc(OC)c3)c(NC(=O)NC(C)(C)C)nc2n1` + Cc1nc(Nc2ncc(C(=O)Nc3c(C)cccc3Cl)s2)cc(N2CCN(CCO)CC2)n1 [Dasatinib] (partner 0.075 µM), the relative viability ([1]; first compound 0.01 µM) is reported as 0.749, the relative viability ([1]; first compound 0.03162 µM) is reported as 0.647 and the relative viability ([1]; first compound 0.1 µM) is reported as 0.924. For the same compound, the relative viability ([1]; first compound 0.3162 µM) was 0.646, the relative viability ([1]; first compound 1 µM) was 0.565 and the relative viability ([2]; first compound 0.01 µM) was 0.297. It also gave a relative viability ([2]; first compound 0.03162 µM) of 0.282, a relative viability ([2]; first compound 0.1 µM) of 0.354 and a relative viability ([2]; first compound 0.3162 µM) of 0.381. For the same compound, the relative viability ([2]; first compound 1 µM) was 0.279, the relative viability ([3]; first compound 0.01 µM) was 0.584 and the relative viability ([3]; first compound 0.03162 µM) was 0.602. The relative viability ([3]; first compound 0.1 µM) was 0.655, the relative viability ([3]; first compound 0.3162 µM) was 0.643 and the relative viability ([3]; first compound 1 µM) was 0.514. For the same compound, the relative viability ([4]; first compound 0.01 µM) was 0.547, the relative viability ([4]; first compound 0.03162 µM) was 0.604 and the relative viability ([4]; first compound 0.1 µM) was 0.57. The relative viability ([4]; first compound 0.3162 µM) was 0.563, the relative viability ([4]; first compound 1 µM) was 0.349 and the relative viability ([5]; first compound 0.01 µM) was 0.189. For the same compound, the relative viability ([5]; first compound 0.03162 µM) was 0.359, the relative viability ([5]; first compound 0.1 µM) was 0.304 and the relative viability ([5]; first compound 0.3162 µM) was 0.348. It also gave a relative viability ([5]; first compound 1 µM) of 0.3, a relative viability ([6]; first compound 0.01 µM) of 0.342 and a relative viability ([6]; first compound 0.03162 µM) of 0.305. The relative viability ([6]; first compound 0.1 µM) was 0.478, the relative viability ([6]; first compound 0.3162 µM) was 0.594 and the relative viability ([6]; first compound 1 µM) was 0.339. For the same compound, the relative viability ([7]; first compound 0.01 µM) was 0.601, the relative viability ([7]; first compound 0.03162 µM) was 0.686 and the relative viability ([7]; first compound 0.1 µM) was 0.942. For the same compound, the relative viability ([7]; first compound 0.3162 µM) was 0.659, the relative viability ([7]; first compound 1 µM) was 0.613 and the relative viability ([8]; first compound 0.01 µM) was 0.29. It also gave a relative viability ([8]; first compound 0.03162 µM) of 0.267, a relative viability ([8]; first compound 0.1 µM) of 0.254 and a relative viability ([8]; first compound 0.3162 µM) of 0.188. The relative viability ([8]; first compound 1 µM) was 0.212, the relative viability ([9]; first compound 0.01 µM) was 0.51 and the relative viability ([9]; first compound 0.03162 µM) was 0.521. The relative viability ([9]; first compound 0.1 µM) was 0.629, the relative viability ([9]; first compound 0.3162 µM) was 0.718 and the relative viability ([9]; first compound 1 µM) was 0.57. It also gave a relative viability ([10]; first compound 0.01 µM) of 0.477, a relative viability ([10]; first compound 0.03162 µM) of 0.412 and a relative viability ([10]; first compound 0.1 µM) of 0.474. It also gave a relative viability ([10]; first compound 0.3162 µM) of 0.478, a relative viability ([10]; first compound 1 µM) of 0.503 and a relative viability ([11]; first compound 0.01 µM) of 0.824. The relative viability ([11]; first compound 0.03162 µM) was 0.757, the relative viability ([11]; first compound 0.1 µM) was 0.942 and the relative viability ([11]; first compound 0.3162 µM) was 0.884. For the same compound, the relative viability ([11]; first compound 1 µM) was 0.639, the relative viability ([12]; first compound 0.01 µM) was 0.508 and the relative viability ([12]; first compound 0.03162 µM) was 0.507. It also gave a relative viability ([12]; first compound 0.1 µM) of 0.521, a relative viability ([12]; first compound 0.3162 µM) of 0.543 and a relative viability ([12]; first compound 1 µM) of 0.436. It also gave a relative viability ([13]; first compound 0.01 µM) of 0.394, a relative viability ([13]; first compound 0.03162 µM) of 0.464 and a relative viability ([13]; first compound 0.1 µM) of 0.518. The relative viability ([13]; first compound 0.3162 µM) was 0.621, the relative viability ([13]; first compound 1 µM) was 0.207 and the relative viability ([14]; first compound 0.01 µM) was 0.369. For the same compound, the relative viability ([14]; first compound 0.03162 µM) was 0.403, the relative viability ([14]; first compound 0.1 µM) was 0.458 and the relative viability ([14]; first compound 0.3162 µM) was 0.452. It also gave a relative viability ([14]; first compound 1 µM) of 0.313, a relative viability ([15]; first compound 0.01 µM) of 0.537 and a relative viability ([15]; first compound 0.03162 µM) of 0.574. For the same compound, the relative viability ([15]; first compound 0.1 µM) was 0.643, the relative viability ([15]; first compound 0.3162 µM) was 0.818 and the relative viability ([15]; first compound 1 µM) was 0.539. The relative viability ([16]; first compound 0.01 µM) was 0.795, the relative viability ([16]; first compound 0.03162 µM) was 1 and the relative viability ([16]; first compound 0.1 µM) was 0.904. For the same compound, the relative viability ([16]; first compound 0.3162 µM) was 0.925, the relative viability ([16]; first compound 1 µM) was 0.878 and the relative viability ([17]; first compound 0.01 µM) was 0.68. It also gave a relative viability ([17]; first compound 0.03162 µM) of 0.572, a relative viability ([17]; first compound 0.1 µM) of 0.604 and a relative viability ([17]; first compound 0.3162 µM) of 0.775. For the same compound, the relative viability ([17]; first compound 1 µM) was 0.554, the relative viability ([18]; first compound 0.01 µM) was 0.182 and the relative viability ([18]; first compound 0.03162 µM) was 0.2. The relative viability ([18]; first compound 0.1 µM) was 0.216, the relative viability ([18]; first compound 0.3162 µM) was 0.159 and the relative viability ([18]; first compound 1 µM) was 0.162. The relative viability ([19]; first compound 0.01 µM) was 0.633, the relative viability ([19]; first compound 0.03162 µM) was 0.593 and the relative viability ([19]; first compound 0.1 µM) was 0.585. It also gave a relative viability ([19]; first compound 0.3162 µM) of 0.393, a relative viability ([19]; first compound 1 µM) of 0.44 and a relative viability ([20]; first compound 0.01 µM) of 1.05. For the same compound, the relative viability ([20]; first compound 0.03162 µM) was 1.07, the relative viability ([20]; first compound 0.1 µM) was 1.06 and the relative viability ([20]; first compound 0.3162 µM) was 1.08. The relative viability ([20]; first compound 1 µM) was 0.909, the relative viability ([21]; first compound 0.01 µM) was 0.36 and the relative viability ([21]; first compound 0.03162 µM) was 0.375. It also gave a relative viability ([21]; first compound 0.1 µM) of 0.407, a relative viability ([21]; first compound 0.3162 µM) of 0.281 and a relative viability ([21]; first compound 1 µM) of 0.27. It also gave a relative viability ([22]; first compound 0.01 µM) of 0.346, a relative viability ([22]; first compound 0.03162 µM) of 0.673 and a relative viability ([22]; first compound 0.3162 µM) of 0.345. The relative viability ([22]; first compound 1 µM) was 0.268.
